What was measured:
[1] = target: Bcl-2 protein (histag-Bcl-2, UniProtKB P10415) (Homo sapiens, UniProt P10415); assay: Inhibition of Bcl-2 by the fluorescence polarisation technique; assay type: binding; details: for IC50: fluorescence polarisation, 2 hours incubation, read-out: IC50 (μM) Bcl-2 FP
Procedure: The fluorescence polarisation tests were carried out on microplates (384 wells). The Bcl-2 protein, labelled (histag-Bcl-2 such that Bcl-2 corresponds to the UniProtKB® primary accession number: P10415), at a final concentration of 5×10^−9M, is mixed with a fluorescent peptide (Fluorescein-REIGAQLRRMADDLNAQY), at a final concentration of 1.00×10^−9M in a buffer solution (Hepes 10 mM, NaCl 150 mM, Tween20 0.05%, pH 7.4), in the presence or absence of increasing concentrations of test compounds. After incubation for 2 hours, the fluorescence polarisation is measured.

[2] = test system: RS4; 11 leukaemia tumour line; assay: In vitro cytotoxicity, Microculture Tetrazolium Assay (MTT); assay type: cell-based; details: Homo sapiens, RS4-11, 48 h, 11 cells, 48 hours exposure
Procedure: The cytotoxicity studies were carried out on the RS4; 11 leukaemia tumour line.
The cells are distributed onto microplates and exposed to the test compounds for 48 hours.
The cell viability is then quantified by a colorimetric assay, the Microculture Tetrazolium Assay (Cancer Res., 1987, 47, 939-942).

Bcl-2 protein, sequence (P10415 whole entry): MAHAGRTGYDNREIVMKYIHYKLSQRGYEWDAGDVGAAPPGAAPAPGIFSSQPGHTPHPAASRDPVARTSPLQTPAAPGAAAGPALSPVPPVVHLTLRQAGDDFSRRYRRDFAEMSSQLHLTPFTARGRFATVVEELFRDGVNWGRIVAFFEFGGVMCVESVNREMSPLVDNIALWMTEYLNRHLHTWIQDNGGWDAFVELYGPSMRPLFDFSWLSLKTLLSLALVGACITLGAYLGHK

| Structure (SMILES) | IC50 [1] | IC50 [2] | Bcl-2 FP, % at given concentration ([1]; @1.1 μM) | Bcl-2 FP, % at given concentration ([1]; @10 μM) |
| --- | --- | --- | --- | --- |
| Cc1c2cc(n1C)-c1cc(Cl)ccc1C(=O)N1Cc3ccccc3C(CCOc3c(cnn3C)N(c3ccc(O)cc3)C2=O)C1 (stereo not drawn) [Example 22, 11-Chloro-4-(4-hydroxyphenyl)-1,7,8-trimethyl-1,4,16,21,22,23-hexahydro-14H-15,21-methano-6,9-(metheno)dibenzo[j,o]pyrazolo[3,4-b][1,4,8,13]oxatriaza-cyclononadecine-5,14(8H)-dione] | 0.0153 µM | 11.8 nM | – | – |
| Cc1c2cc(n1C)-c1cc(Cl)ccc1C(=O)N1CCc3c(cccc3OCCc3c(cnn3C3CCOC3)N(c3ccc(O)cc3)C2=O)C1 (stereo not drawn) [Example 23, 11-Chloro-4-(4-hydroxyphenyl)-7,8-dimethyl-1-(tetrahydrofuran-3-yl)-1,4,16,17,23,24-hexahydro-14H-15,18-methano-6,9-(metheno)dibenzo[l,r]pyrazolo[3,4-d][1,6,10,15]oxatriazacyclononadecine-5,14(8H)-dione] | 0.0143 µM | 73.3 nM | – | – |
| Cc1c2cc(n1C)-c1cc(Cl)ccc1C(=O)N1Cc3cccc(c3C1)OCCc1c(cnn1C)N(c1ccc(O)cc1)C2=O [Example 24, 11-Chloro-4-(4-hydroxyphenyl)-1,7,8-trimethyl-1,4,22,23-tetrahydro-14H,16H-15,17-methano-6,9-(metheno)dibenzo[b,g]pyrazolo[4,3-o][1,5,10,14]oxatriaza-cyclooctadecine-5,14(8H)-dione] | 0.0149 µM | 106 nM | – | – |
| Cc1c(N2C(=O)c3cc(n(C)c3C)-c3cc(Cl)ccc3C(=O)N3CCC(CCOc4cc(O)ccc42)CC3)cc(C#N)n1C [Example 27, 4-[15-Chloro-3-hydroxy-18,19-dimethyl-12,21-dioxo-7,8,9,10,18,21-hexahydro-6H,12H,22H-8,11-ethano-20,17-(metheno)dibenzo[b,j][1,4,8,13]oxatriaza-cyclooctadecin-22-yl]-1,5-dimethyl-1H-pyrrole-2-carbonitrile] | 0.0098 µM | 104 nM | – | – |
| Cc1c(N2C(=O)c3cc(n(C)c3C)-c3ccccc3C(=O)N3CCC(CCOc4cc(O)ccc42)CC3)cc(C#N)n1C [Example 28, 4-[3-Hydroxy-18,19-dimethyl-12,21-dioxo-7,8,9,10,18,21-hexahydro-6H,12H,22H-8,11-ethano-20,17-(metheno)dibenzo[b,j][1,4,8,13]oxatriazacycloocta-decin-22-yl]-1,5-dimethyl-1H-pyrrole-2-carbonitrile] | 0.0288 µM | 401 nM | – | – |
| Cc1c2cc(n1C)-c1cc(Cl)ccc1C(=O)N1CCc3c(cccc3OCCC[n+]3cccc(c3)N(c3ccc(O)cc3)C2=O)C1 [Example 30, 6-Chloro-14-(4-hydroxyphenyl)-10,11-dimethyl-2,13-dioxo-23-oxa-1,10,14-triaza-19-azoniahexacyclo[26.3.1.1˜9,12˜.1˜15,19˜.0˜3,8˜.0˜24,29˜]tetratriaconta-3,5,7,9(34),11,15(33),16,18,24,26,28-undecaene trifluoromethanesulphonate] | 0.0314 µM | > 1880 nM | – | – |
| Cc1c2cc(n1C)-c1cc(Cl)ccc1C(=O)N1CCc3c(cccc3OCCn3c(C)ncc(c3=O)N(c3ccc(O)cc3)C2=O)C1 [Example 31, 6-Chloro-14-(4-hydroxyphenyl)-10,11,18-trimethyl-22-oxa-1,10,14,17,19-pentaazahexacyclo[25.3.1.1˜9,12˜.1˜15,19˜.0˜3,8˜.0˜23,28˜]tritriaconta-3,5,7,9(33),11,15,17,23,25,27-decaene-2,13,32-trione] | – | 1330 nM | 74.55% @1.1 μM | – |
| Cc1c2cc(n1C)-c1cc(Cl)ccc1C(=O)N1CCc3c(cccc3OCCOCCN(c3ccc(O)cc3)C2=O)C1 [Example 34, 18-chloro-11-(4-hydroxyphenyl)-14,15-dimethyl-6,7,10,11,23,24-hexahydro-9H,21H-1,22-methano-13,16-(metheno)dibenzo[m,s][1,4,7,11,16]dioxatriaza-cycloicosine-12,21(15H)-dione] | 0.0693 µM | 1240 nM | – | – |
| Cc1c2cc(n1C)-c1cc(Cl)ccc1C(=O)N1Cc3cccc(c3C1)OCCOCCOc1ncc(cn1)N(c1ccc(O)cc1)C2=O [Example 36, 10-Chloro-2-(4-hydroxyphenyl)-5,6-dimethyl-23,26,29-trioxa-2,6,15,31,34-pentaazahexacyclo[28.2.2.1˜4,7˜.1˜15,18˜.0˜8,13˜.0˜17,22˜]hexatriaconta-1(32),4,7(36),8,10,12,17,19,21,30,33-undecaene-3,14-dione] | – | > 600 nM | – | 41.5% @10 μM |
| Cc1c2cc(n1C)-c1cc(F)ccc1C(=O)N1CCc3c(cccc3OCCOCCOc3ncc(cn3)N(c3ccc(O)cc3)C2=O)C1 [Example 37, 10-Fluoro-2-(4-hydroxyphenyl)-5,6-dimethyl-24,27,30-trioxa-2,6,15,32,35-pentaazahexacyclo[29.2.2.1˜4,7˜.1˜15,19˜.0˜8,13˜.0˜18,23˜]heptatriaconta-1(33),4,7(37),8,10,12,18,20,22,31,34-undecuene-3,14-dione] | 0.0102 µM | 49.6 nM | – | – |
| Cc1c2cc(n1C)-c1cc(Cl)ccc1C(=O)N1CCc3c(cccc3OCCOCCOc3ncc(cn3)N(c3ccc(O)cc3)C2=O)C1 [Example 38, 10-Chloro-2-(4-hydroxyphenyl)-5,6-dimethyl-24,27,30-trioxa-2,6,15,32,35-pentaazahexacyclo[29.2.2.1˜4,7˜.1˜15,19˜.0˜8,13˜.0˜18,23˜]heptatriaconta-1(33),4,7(37), 8,10,12,18,20,22,31,34-undecuene-3,14-dione] | 0.00385 µM | 23.1 nM | – | – |
| Cc1c2cc(n1C)-c1cc(Cl)ccc1C(=O)N1CCc3c(cccc3OCCCCCCOc3ncc(cn3)N(c3ccc(O)cc3)C2=O)C1 [Example 39, 10-Chloro-2-(4-hydroxyphenyl)-5,6-dimethyl-24,31-dioxa-2,6,15,33,36-pentaazahexacyclo[30.2.2.1˜4,7˜.1˜15,19˜.0˜8,13˜.0˜18,23˜]octatriaconta-1(34),4,7(38),8,10,12,18,20,22,32,35-undecuene-3,14-dione] | 0.0768 µM | 149 nM | – | – |
| Cc1c2cc(n1C)-c1cc(Cl)ccc1C(=O)N1CCc3c(cccc3OCCCCCOc3ncc(cn3)N(c3ccc(O)cc3)C2=O)C1 [Example 40, 10-Chloro-2-(4-hydroxyphenyl)-5,6-dimethyl-24,30-dioxa-2,6,15,32,35-pentaazahexacyclo[29.2.2.1˜4,7˜.1˜15,19˜.0˜8,13˜.0˜8,23˜]heptatriaconta-1(33),4,7(37),8,10,12,18,20,22,31,34-undecuene-3,14-dione] | 0.0064 µM | 29.9 nM | – | – |
| Cc1c2cc(n1C)-c1cc(Cl)ccc1C(=O)N1CCc3c(cccc3OCCCCOc3ncc(cn3)N(c3ccc(O)cc3)C2=O)C1 [Example 41, 10-Chloro-2-(4-hydroxyphenyl)-5,6-dimethyl-24,29-dioxa-2,6,15,31,34-pentaazahexacyclo[28.2.2.1˜4,7˜.1˜15,19˜.0˜8,13˜.0˜18,23˜]hexatriaconta-1(32),4,7(36),8,10,12,18,20,22,30,33-undecaene-3,14-dione] | 0.0467 µM | 197 nM | – | – |
| Cc1c2cc(n1C)-c1cc(Cl)ccc1C(=O)N1CCCC(COCCOCCOc3ncc(cn3)N(c3ccc(O)cc3)C2=O)C1 (stereo not drawn) [Example 42, 10-Chloro-2-(4-hydroxyphenyl)-5,6-dimethyl-21,24,27-trioxa-2,6,15,29,32-pentaazapentacyclo[26.2.2.1˜4,7˜.1˜15,19˜.0˜8,13˜]tetratriaconta-1(30),4, 7(34),8,10,12,28,31-octaene-3,14-dione] | – | > 600 nM | – | 39.2% @10 μM |
